Assay results: paper PMC6686156, “Discovery of Sustainable Drugs for Neglected Tropical Diseases: Cashew Nut Shell Liquid (CNSL)‐Based Hybrids Target Mitochondrial Function and ATP Production in Trypanosoma brucei” (Chemmedchem, 2019)
Read-outs that look alike come from different tables or passages of the source.

Tests used:
[1] = system: T. b. brucei 427WT bloodstream trypomastigotes; assay: microbe, parasite or virus in culture; type: cell-based, Trypanosoma brucei brucei; conditions: for SI, selectivity index=EC50(HFF)/EC50(T. b. b. WT): HFF versus T. b. b. 427WT; for RF, resistance factor (+ 5 mM glycerol versus control): Table 2; for EC50: Trypanosoma brucei; for fold more active than compound 4: trypanocidal activity relative to parent compound 4
Method: (§1) Organisms and culture media: Only bloodstream trypomastigotes of T. b. brucei were used throughout this study. […] Parasites were cultured in vented flasks at 37 °C and 5 % CO2 atmosphere and they were passaged every 3 days. Bloodstream forms of T. congolense savannah‐type strain IL3000 were cultured in basal MEM medium, supplemented by 10 % fresh goat serum, 14 μL of β‐mercaptoethanol, 800 μL of 200 mM glutamine solution, and 10 mL of penicillin/streptomycin solution per liter of medium (pH 7.3).48 T. congolense were cultured in six‐well plates at 34 °C and 5 % CO2.
(§2) In brief, the assays were performed in 96‐well plates with 2×10^5 cells per well for T. b. brucei or 5×10^5 cells per well for T. congolense, in their respective culture media. First, 200 μL of test compounds’ solutions (400 μM, in T. brucei or T. congolense medium as appropriate) was added to the first well of each 12‐well row, from which doubling dilutions were conducted over one row per test compound. […] Fluorescence was detected using a FLUOstar Optima (BMG Labtech, Durham, NC, USA) at wavelength of 540 nm (excitation), 590 nm (emission). EC50 values were calculated by nonlinear regression using an equation for a sigmoidal dose–response curve with variable slope using Prism 5.0 (GraphPad Software Inc., San Diego, CA, USA).

T. b. brucei B48 = assay: microbe, parasite or virus in culture; type: cell-based, Trypanosoma brucei brucei; conditions: for RF, resistance factor relative to WT (B48): B48 versus 427WT; for EC50: Trypanosoma brucei, read-out: EC50 T. b. b. B48
Method: as §1, §2

[2] = system: T. b. brucei aqp2/aqp3‐KO; assay: microbe, parasite or virus in culture; type: cell-based, Trypanosoma brucei brucei; conditions: for EC50: Trypanosoma brucei, read-out: EC50 T. b. b. aqp2/aq3‐KO; for RF, resistance factor relative to WT (aqp2/aqp3-KO): aqp2/aqp3-KO versus 427WT
Method: as §1, §2

T. congolense IL3000 WT = assay: In vitro drug susceptibility assay (resazurin), T. congolense; type: cell-based; conditions: Trypanosoma congolense, bloodstream forms, read-out: EC50 T. c. IL3000 WT
Method: as §1, §2

T. brucei GAPDH = T. brucei GAPDH (Trypanosoma brucei brucei, UniProt P22512); assay: Inhibition of T. brucei GAPDH; type: biochemical; conditions: fixed concentration of 10 μM; data not shown; read-out: decrease of GAPDH activity
Source text: […]. […] Limitations of solubility prevented us from testing the series at higher concentrations. However, it must be noted that we cannot exclude the possibility of a low‐affinity inhibition of GAPDH contributing to the trypanocidal effect, as compounds may accumulate to relatively high concentrations within the parasite.

[3] = system: T. b. brucei 427WT trypomastigotes; assay: Growth curve / time-to-kill determination; type: cell-based, Trypanosoma brucei brucei; conditions: 1× EC50; over 48 h
Method: To determine whether 18–22 inhibited growth or cell division rather than causing cell death of T. b. brucei, cell growth curves were performed by treating 427WT trypomastigotes with concentrations corresponding to 0.5×, 1×, and 2× the EC50 value, using untreated cells as a control. Incubation with test compounds at half the EC50 (Figure 3 A) caused mostly some delayed growth phenotype, with rates increasing after 10 or 20 h. […] At double the concentration (Figure 3 C), all the hybrids cleared the culture between the 4 h and 8 h time points, with the cell populations rapidly declining between 2 and 4 h.
Untreated parasites, used as control, were grown in parallel. The cells were counted by using hemocytometer cell counter (cell count/mL×10^4) at 0, 2, 4, 8, 12, 24, 28, 32, 36, 48 h of incubation. Each experiment was performed as two independent replicates, and each sample was counted at least twice.

[4] = system: T. b. brucei 427WT bloodstream trypomastigotes; assay: ATP assay on T. b. brucei (luciferin-luciferase); type: cell-based, Trypanosoma brucei brucei; conditions: approximately 0.5×EC50; after 4–6 h
Method: ATP assay on T. b. brucei and HFF cells: Changes in cellular ATP levels due to the exposure of trypanosomes to the test compounds (0.5×EC50) were monitored using the Molecular Probes ATP Determination Kit (A22066, Invitrogen Detection Technologies), based on the luciferin–luciferase bioluminescent enzymatic reaction. Bloodstream trypomastigote cultures of T. brucei s427WT were incubated with and without test compound, and, at each predetermined incubation time, 10^7 cells of each sample were transferred into a microfuge tube and centrifuged at 2000×g for 10 min at 4 °C. The pellet was washed twice with 1 mL of 50 mM Tris⋅HCl (pH 7.4) containing 0.1 mM DTT, and then resuspended in 200 μL of the same buffer. The cells were lysed by sonication on ice (twice for 10 s separated by 30 s), using a Soniprep 150 (MSE) at 8 μm amplitude. The samples were centrifuged at 10 000×g for 10 min at 4 °C and the supernatant was collected, instantly frozen in liquid nitrogen, and stored at −80 °C. Oligomycin (2.0 μg mL^−1) was used as positive control. ATP levels were quantified using the contents of the kit following the manufacturer's instructions; 90 μL of standard reaction solution was added to each well of a 96‐well plate and the background luminescence was recorded in a FLUOstar OPTIMA fluorimeter; 10 μL of each sample was then added to each well. The plate was incubated at 28 °C for 15 min and the luminescence was measured, including a standard curve with an ATP concentration ranging from 1 nM to 1 μM to allow the calculation of the ATP concentrations in each sample. The ATP content was measured at 0, 0.5, 1, 2, 4, 8 and 12 h of incubation with test sample.

[5] = system: T. b. brucei 427WT bloodstream trypomastigotes; assay: Transmission electron microscopy on T. b. brucei; type: cell-based, Trypanosoma brucei brucei; conditions: 1×EC50; 4 h exposure
Method: Transmission electron microscopy assay on T. b. brucei and HFF cells: TEM of bloodstream trypomastigotes (427WT) and of HFF was performed essentially as previously described.52 Briefly, cell cultures were adjusted to 2.5×10^6 cells mL^−1 and incubated in the presence or absence of test compounds at EC50. Cells were fixed overnight at 4 °C in 2.5 % glutaraldehyde and 4 % paraformaldehyde in 0.1 M phosphate buffer (pH 7.4). Samples were washed with 0.1 M phosphate buffer (pH 7.4), post‐fixed in 1 % osmium tetroxide for 1 h on ice, and washed with the phosphate buffer. Cells were next incubated in 0.5 % uranyl acetate solution for 30 min, washed with distilled water and dehydrated in increasing concentrations of acetone (30, 50, 70, 90 and 100 %).

[6] = 72 h, bloodstream trypomastigotes, resazurin, 48 h + 24 h, n=4, read-out: EC50 T. b. b. 427WT
[7] = Table 2, 5 mM glycerol in medium, average±SEM of three, read-out: EC50 s427WT + 5 mM glycerol
[8] = Table 2, no glycerol, average±SEM of three, read-out: EC50 Control s427WT

T. brucei GAPDH, sequence (P22512 whole entry): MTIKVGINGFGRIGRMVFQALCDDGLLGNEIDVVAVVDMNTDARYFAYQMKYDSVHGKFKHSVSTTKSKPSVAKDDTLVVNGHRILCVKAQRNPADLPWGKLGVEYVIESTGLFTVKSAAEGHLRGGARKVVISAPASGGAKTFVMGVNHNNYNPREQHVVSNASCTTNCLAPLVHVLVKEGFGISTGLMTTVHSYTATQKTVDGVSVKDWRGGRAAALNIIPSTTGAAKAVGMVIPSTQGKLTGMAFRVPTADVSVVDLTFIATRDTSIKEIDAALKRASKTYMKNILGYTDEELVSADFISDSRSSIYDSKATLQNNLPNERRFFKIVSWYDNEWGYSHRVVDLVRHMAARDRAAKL

| SMILES | SI, selectivity index=EC50(HFF)/EC50(T. b. b. WT) [1] | RF, resistance factor (+ 5 mM glycerol versus control) [1] | EC50 [1, 6] | EC50 [1, 7] | EC50 [1, 8] | fold more active than compound 4 [1] | RF, resistance factor relative to WT (B48) (T. b. brucei B48) | EC50 (T. b. brucei B48) | EC50 [2] | RF, resistance factor relative to WT (aqp2/aqp3-KO) [2] | EC50 (T. congolense IL3000 WT) | inhibition at 10 µM (T. brucei GAPDH) | effect on cell growth [3] | ATP content, % of untreated [ATP] [4] | ultrastructure by TEM in trypanosomes [5] |
| --- | --- | --- | --- | --- | --- | --- | --- | --- | --- | --- | --- | --- | --- | --- | --- |
| COc1cccc2c1C(=O)C=C(Oc1cccc(CCCCCCCCO)c1)C2=O [Compound 20, 2‐(3‐(8‐Hydroxyoctyl)phenoxy)‐5‐methoxynaphthalene‐1,4‐dione] | >40 | 1.74 | 5 ± 0.3 µM | 16 ± 0.2 µM | 9.2 ± 0.04 µM | up to 10 fold | 1.1 | 5.3 ± 0.8 µM | 6.2 ± 0.58 µM | 1.2 | 18.8 ± 0.2 µM | < 15% | decreased the growth rate substantially, with a nearly trypanostatic effect over the first 12 h | approximately 50% | some mitochondria presented an irregular shape |
| O=C1C(Oc2cccc(CCCCCCCCO)c2)=CC(=O)c2c(O)cccc21 [Compound 22, 5‐Hydroxy‐2‐(3‐(8‐hydroxyoctyl)phenoxy)naphthalene‐1,4‐dione] | >26.3 | 1.11 | 7.6 ± 0.7 µM | 28.2 ± 0.2 µM | 25.4 ± 1 µM | up to 10 fold | 0.91 | 6.8 ± 0.1 µM | 7.3 ± 0.5 µM | 0.96 | 43.4 ± 0.2 µM | < 15% | killed only a proportion of the cell population before stabilizing | approximately 50% | mitochondrial damage but no other ultrastructural changes |
